Data from patent US20190308988A1, “OPIOID RECEPTOR ANTAGONIST PRODRUGS” (Nirsum Laboratories, Inc., priority 2017, published 2019).
≈ marks a conversion by molar mass, not a printed value.

Experiment: Solubility determination in oil (Table 10)
Details: for solubility at 24 h: 25 °C, Obs. Temp. 25 °C; for solubility at 24 h / solubility thermodynamic / solubility: thermodynamic from solid; for solubility thermodynamic / solubility: 40 °C; for solubility thermodynamic: water, Equilibrium solubility: Water
Procedure: A known amount of test substance (˜40 mg) was weighed into the vial, 100 μL of oil was added and heated to 60° C. and then system was slurried to reach equilibrium. […] Extra oil was added into the vial once compound precipitated out and then the system was re-equilibrated at 1000 rpm at room temperature (25° C.). Final concentration was determined by HPLC method as described below in Table 6a and 6b.

[1] = oil or lipid, Approximate Solubility in Excipient: Cottonseed oil, Heating Temp. 60 °C
[2] = oil or lipid, Approximate Solubility in Excipient: Sesame oil, Heating Temp. 60 °C
[3] = Heating Temp. 40 °C, Obs. Temp. 40 °C
[4] = oil or lipid, Approximate Solubility in Excipient: Cottonseed oil, Heating Temp. 40 °C, Obs. Temp. 40 °C
[5] = oil or lipid, Approximate Solubility in Excipient: Sesame oil, Heating Temp. 40 °C, Obs. Temp. 40 °C
[6] = organic solvent or mixture, Approximate Solubility in Excipient: Ethanol, Heating Temp. 40 °C, Obs. Temp. 40 °C
[7] = oil or lipid, Approximate Solubility in Excipient: Cottonseed oil, Heating Temp. 60 °C, Obs. Temp. 40 °C
[8] = oil or lipid, Approximate Solubility in Excipient: Sesame oil, Heating Temp. 60 °C, Obs. Temp. 40 °C
[9] = oil or lipid, Approximate Solubility in Excipient: Castor oil, Heating Temp. 40 °C, Obs. Temp. 40 °C

Work on `CCCCCCCCCCCCCCCCCC(=O)Oc1ccc2c3c1O[C@H]1C(=O)CC[C@@]4(O)C(C2)N(CC2CC2)CC[C@]314` [Compound 54, (4aS,7aR,12bS)-3-(cyclopropylmethyl)-4a-hydroxy-7-oxo-2,3,4,4a,5,6,7,7a-octahydro-1H-4,12-methanobenzofuro[3,2-e]isoquinolin-9-yl stearate] yielded a solubility at 24 h [1] of under 51 mg/mL, a solubility at 24 h [2] of under 50 mg/mL and a solubility thermodynamic [3] of under 0.001 mg/mL.
Work on `CCCCCCCCCCCCCCOC(=O)OCOc1ccc2c3c1O[C@H]1C(=O)CC[C@@]4(O)C(C2)N(CC2CC2)CC[C@]314` [Compound 27, (((4aS,7aR,12bS)-3-(cyclopropylmethyl)-4a-hydroxy-7-oxo-2,3,4,4a,5,6,7,7a-octahydro-1H-4,12-methanobenzofuro[3,2-e]isoquinolin-9-yl)oxy)methyl tetradecyl carbonate] yielded a solubility at 24 h [1] of over 395 mg/mL, a solubility at 24 h [2] of over 399 mg/mL and a solubility thermodynamic [3] of under 0.001 mg/mL.
In the case of `CCCCCCCCCCCCCCC(=O)Oc1ccc2c3c1O[C@H]1C(=O)CC[C@@]4(O)C(C2)N(CC2CC2)CC[C@]314` [Compound 58, (4aS,7aR,12bS)-3-(cyclopropylmethyl)-4a-hydroxy-7-oxo-2,3,4,4a,5,6,7,7a-octahydro-1H-4,12-methanobenzofuro[3,2-e]isoquinolin-9-yl pentadecanoate], the solubility at 24 h [1] is reported as 102 to 204 mg/mL (≈ 180 to 360 mM), the solubility at 24 h [2] is reported as 99.4 to 199 mg/mL (≈ 176 to 351 mM) and the solubility thermodynamic [3] is reported as 0.0014 mg/mL (≈ 0.00247 mM).
With `C=C1CC[C@@]2(O)C3Cc4ccc(OC(=O)CCCCCCC/C=C\C/C=C\C/C=C\CC)c5c4[C@@]2(CCN3CC2CC2)[C@H]1O5` [Compound 20, (4aS,7aS,12bS)-3-(cyclopropylmethyl)-4a-hydroxy-7-methylene-2,3,4,4a,5,6,7,7a-octahydro-1H-4,12-methanobenzofuro[3,2-e]isoquinolin-9-yl (9Z,12Z,15Z)-octadeca-9,12,15-trienoate] the solubility at 24 h [1] was 68 to 82 mg/mL (≈ 113 to 137 mM), the solubility at 24 h [2] was 80 to 100 mg/mL (≈ 133 to 167 mM) and the solubility [4] was over 414 mg/mL. It also gave a solubility [5] of over 406 mg/mL, a solubility [6] of 157 to 197 mg/mL (≈ 262 to 328 mM) and a solubility thermodynamic [3] of under 0.0002 mg/mL.
In the case of `O=C(CCC1CCCC1)Oc1ccc2c3c1O[C@H]1C(=O)CC[C@@]4(O)C(C2)N(CC2CC2)CC[C@]314` [Compound 43, (4aS,7aR,12bS)-3-(cyclopropylmethyl)-4a-hydroxy-7-oxo-2,3,4,4a,5,6,7,7a-octahydro-1H-4,12-methanobenzofuro[3,2-e]isoquinolin-9-yl 3-cyclopentylpropanoate], the solubility [4] is reported as under 50 mg/mL, the solubility [7] is reported as 140 to 210 mg/mL (≈ 301 to 451 mM) and the solubility [5] is reported as under 50 mg/mL. For the same compound, the solubility [8] was 133 to 199 mg/mL (≈ 286 to 427 mM), the solubility [6] was over 257 mg/mL and the solubility thermodynamic [3] was 0.05 mg/mL (≈ 0.107 mM). For the same compound, the “Equilibrium solubility: Water” value [3] was 0.048 mg/mL.
Work on `CCCCCCCCCCCC(=O)OCOc1ccc2c3c1O[C@H]1C(=O)CC[C@@]4(O)C(C2)N(CC2CC2)CC[C@]314` [Compound 48, (((4aS,7aR,12bS)-3-(cyclopropylmethyl)-4a-hydroxy-7-oxo-2,3,4,4a,5,6,7,7a-octahydro-1H-4,12-methanobenzofuro[3,2-e]isoquinolin-9-yl)oxy)methyl dodecanoate] yielded a solubility at 24 h [1] of over 410 mg/mL, a solubility at 24 h [2] of over 405 mg/mL and a solubility thermodynamic [3] of 0.003 mg/mL (≈ 0.00542 mM).
In the case of `C=C1CC[C@@]2(O)C3Cc4ccc(OC(=O)OCCCCCCCC)c5c4[C@@]2(CCN3CC2CC2)[C@H]1O5` [Compound 17, (4aS,7aS,12bS)-3-(cyclopropylmethyl)-4a-hydroxy-7-methylene-2,3,4,4a,5,6,7,7a-octahydro-1H-4,12-methanobenzofuro[3,2-e]isoquinolin-9-yl octyl carbonate], the solubility at 24 h [1] is reported as over 408 mg/mL, the solubility at 24 h [2] is reported as over 487 mg/mL and the solubility [4] is reported as over 416 mg/mL. The solubility [5] was over 416 mg/mL, the solubility [6] was over 209 mg/mL and the solubility thermodynamic [3] was 0.0008 mg/mL (≈ 0.00161 mM).
Work on `C=C1CC[C@@]2(O)C3Cc4ccc(OC(=O)OCCCCCCCCCCCCCCCCCC)c5c4[C@@]2(CCN3CC2CC2)[C@H]1O5` [Compound 33, (4aS,7aS,12bS)-3-(cyclopropylmethyl)-4a-hydroxy-7-methylene-2,3,4,4a,5,6,7,7a-octahydro-1H-4,12-methanobenzofuro[3,2-e]isoquinolin-9-yl octadecyl carbonate] yielded a solubility at 24 h [1] of under 50 mg/mL, a solubility at 24 h [2] of under 51 mg/mL and a solubility thermodynamic [3] of under 0.001 mg/mL.
`CCCCCCCCCCCCCC(=O)Oc1ccc2c3c1O[C@H]1C(=O)CC[C@@]4(O)C(C2)N(CC2CC2)CC[C@]314` [Compound 57, (4aS,7aR,12bS)-3-(cyclopropylmethyl)-4a-hydroxy-7-oxo-2,3,4,4a,5,6,7,7a-octahydro-1H-4,12-methanobenzofuro[3,2-e]isoquinolin-9-yl tetradecanoate] gave a solubility at 24 h [1] of over 424 mg/mL, a solubility at 24 h [2] of over 417 mg/mL and a solubility thermodynamic [3] of under 0.001 mg/mL.
Compound `C=C1CC[C@@]2(O)C3Cc4ccc(OC(=O)CCC5CCCC5)c5c4[C@@]2(CCN3CC2CC2)[C@H]1O5` [Compound 39, (4aS,7aS,12bS)-3-(cyclopropylmethyl)-4a-hydroxy-7-methylene-2,3,4,4a,5,6,7,7a-octahydro-1H-4,12-methanobenzofuro[3,2-e]isoquinolin-9-yl 3-cyclopentylpropanoate] has a solubility at 24 h [1] of 104 to 139 mg/mL (≈ 224 to 300 mM), a solubility at 24 h [2] of 106 to 141 mg/mL (≈ 229 to 304 mM) and a solubility [9] of over 218 mg/mL. The solubility [4] was 225 to 402 mg/mL (≈ 485 to 868 mM), the solubility [5] was over 400 mg/mL and the solubility [6] was 150 to 200 mg/mL (≈ 324 to 431 mM). It also gave a solubility thermodynamic [3] of 0.018 mg/mL (≈ 0.0388 mM).
`CCCCCCCCCCCCCCCC(=O)OCOc1ccc2c3c1O[C@H]1C(=O)CC[C@@]4(O)C(C2)N(CC2CC2)CC[C@]314` [Compound 49, (((4aS,7aR,12bS)-3-(cyclopropylmethyl)-4a-hydroxy-7-oxo-2,3,4,4a,5,6,7,7a-octahydro-1H-4,12-methanobenzofuro[3,2-e]isoquinolin-9-yl)oxy)methyl hexadecanoate] gave a solubility at 24 h [1] of under 50 mg/mL, a solubility at 24 h [2] of under 51 mg/mL and a solubility thermodynamic [3] of 0.028 mg/mL (≈ 0.0459 mM).
In the case of `C=C1CC[C@@]2(O)C3Cc4ccc(OC(=O)CCCCCCC/C=C\CCCCCCCC)c5c4[C@@]2(CCN3CC2CC2)[C@H]1O5` [Compound 36, (4aS,7aS,12bS)-3-(cyclopropylmethyl)-4a-hydroxy-7-methylene-2,3,4,4a,5,6,7,7a-octahydro-1H-4,12-methanobenzofuro[3,2-e]isoquinolin-9-yl oleate], the solubility at 24 h [1] is reported as over 407 mg/mL, the solubility at 24 h [2] is reported as over 408 mg/mL and the solubility [9] is reported as over 217 mg/mL. It also gave a solubility [4] of over 419 mg/mL, a solubility [5] of over 412 mg/mL and a solubility [6] of 20 to 30 mg/mL (≈ 33.1 to 49.7 mM). The solubility thermodynamic [3] was 0.005 mg/mL (≈ 0.00828 mM).
Work on `C=C1CC[C@@]2(O)C3Cc4ccc(OC(=O)CCCCCCCCCCCCCCCCC)c5c4[C@@]2(CCN3CC2CC2)[C@H]1O5` [Compound 12, (4aS,7aS,12bS)-3-(cyclopropylmethyl)-4a-hydroxy-7-methylene-2,3,4,4a,5,6,7,7a-octahydro-1H-4,12-methanobenzofuro[3,2-e]isoquinolin-9-yl stearate] yielded a solubility at 24 h [1] of under 51 mg/mL, a solubility at 24 h [2] of under 50 mg/mL and a solubility [4] of 100 to 120 mg/mL (≈ 165 to 198 mM). For the same compound, the solubility [7] was over 398 mg/mL, the solubility [5] was 70 to 95 mg/mL (≈ 116 to 157 mM) and the solubility [8] was over 411 mg/mL. The solubility [6] was 65 to 75 mg/mL (≈ 107 to 124 mM) and the solubility thermodynamic [3] was 0.043 mg/mL (≈ 0.071 mM).
For `C=C1CC[C@@]2(O)C3Cc4ccc(OC(=O)CCCCCCC/C=C\C/C=C\CCCCC)c5c4[C@@]2(CCN3CC2CC2)[C@H]1O5` [Compound 37, (4aS,7aS,12bS)-3-(cyclopropylmethyl)-4a-hydroxy-7-methylene-2,3,4,4a,5,6,7,7a-octahydro-1H-4,12-methanobenzofuro[3,2-e]isoquinolin-9-yl (9Z,12Z)-octadeca-9,12-dienoate], the solubility at 24 h [1] was 68.5 to 82 mg/mL (≈ 114 to 136 mM), the solubility at 24 h [2] was 80 to 102 mg/mL (≈ 133 to 169 mM) and the solubility [9] was over 226 mg/mL. It also gave a solubility [4] of over 405 mg/mL, a solubility [5] of over 408 mg/mL and a solubility [6] of 75 to 90 mg/mL (≈ 125 to 150 mM). For the same compound, the solubility thermodynamic [3] was 0.002 mg/mL (≈ 0.00332 mM).
Work on `C=C1CC[C@@]2(O)C3Cc4ccc(OC(=O)CC(C)(C)C)c5c4[C@@]2(CCN3CC2CC2)[C@H]1O5` [Compound 38, (4aS,7aS,12bS)-3-(cyclopropylmethyl)-4a-hydroxy-7-methylene-2,3,4,4a,5,6,7,7a-octahydro-1H-4,12-methanobenzofuro[3,2-e]isoquinolin-9-yl 3,3-dimethylbutanoate] yielded a solubility [9] of over 248 mg/mL, a solubility [4] of over 407 mg/mL and a solubility [5] of 230 to 411 mg/mL (≈ 526 to 939 mM). For the same compound, the solubility [6] was 160 to 200 mg/mL (≈ 366 to 457 mM), the solubility thermodynamic [3] was 0.617 mg/mL (≈ 1.41 mM) and the solubility thermodynamic (Heating Temp. 60 °C, Obs. Temp. 40 °C) was 0.21 mg/mL (≈ 0.48 mM).
For `CCCCCCCC/C=C/CCCCCCCC(=O)OCOc1ccc2c3c1O[C@H]1C(=O)CC[C@@]4(O)C(C2)N(CC2CC2)CC[C@]314` [Compound 26, (((4aS,7aR,12bS)-3-(cyclopropylmethyl)-4a-hydroxy-7-oxo-2,3,4,4a,5,6,7,7a-octahydro-1H-4,12-methanobenzofuro[3,2-e]isoquinolin-9-yl)oxy)methyl (E)-octadec-9-enoate], the solubility at 24 h [1] was 204 to 239 mg/mL (≈ 321 to 376 mM), the solubility at 24 h [2] was under 354 mg/mL and the solubility thermodynamic [3] was under 0.001 mg/mL.
For `CCCCCCCCCCCCCCCCCCCC(=O)Oc1ccc2c3c1O[C@H]1C(=O)CC[C@@]4(O)C(C2)N(CC2CC2)CC[C@]314` [Compound 50, (4aS,7aR,12bS)-3-(cyclopropylmethyl)-4a-hydroxy-7-oxo-2,3,4,4a,5,6,7,7a-octahydro-1H-4,12-methanobenzofuro[3,2-e]isoquinolin-9-yl icosanoate], the solubility at 24 h [1] was under 51 mg/mL, the solubility at 24 h [2] was under 52 mg/mL and the solubility thermodynamic [3] was under 0.001 mg/mL.
